Biological target: T1, apocarotenoid oxygenase ACO from Synechocystis (Synechocystis sp. PCC 6803, UniProt P74334)
T1 sequence (P74334 1-490): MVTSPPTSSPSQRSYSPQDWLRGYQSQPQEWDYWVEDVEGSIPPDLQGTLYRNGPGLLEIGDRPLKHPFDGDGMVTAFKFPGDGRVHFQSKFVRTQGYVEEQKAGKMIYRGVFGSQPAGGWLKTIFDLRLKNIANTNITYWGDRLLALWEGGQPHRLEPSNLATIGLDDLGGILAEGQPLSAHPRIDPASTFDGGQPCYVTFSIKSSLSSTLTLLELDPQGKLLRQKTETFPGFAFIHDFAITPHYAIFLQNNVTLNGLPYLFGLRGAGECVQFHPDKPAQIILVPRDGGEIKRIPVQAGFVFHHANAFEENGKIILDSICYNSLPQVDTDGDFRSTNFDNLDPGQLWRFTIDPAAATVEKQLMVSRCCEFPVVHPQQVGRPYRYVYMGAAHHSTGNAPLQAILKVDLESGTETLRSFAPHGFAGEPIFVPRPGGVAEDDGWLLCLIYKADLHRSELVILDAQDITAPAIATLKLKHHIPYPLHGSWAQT
Experiment: HPLC at […] nm, UV-visible spectra
Assay type: biochemical
Details: product 3-hydroxy-retinal

CC1=C(/C=C/C(C)=C/C=C/C(C)=C/C=C/C=C(\C)C=O)C(C)(C)C[C@H](O)C1 [3-hydroxy-β-apo-12’-carotenal]
HPLC at 360 nm, UV-visible spectra: first incubated 3-hydroxy-β-apo-12’-carotenal with the bacterial ACO to produce 3-hydroxy-retinal

From article PMC8082539 (ACS chemical biology, 2021)
